Reference: patent publication US9227967B2, “Inhibitor compounds of semicarbazide-sensitive amine oxidases” (Proximagen Limited, priority 2010, dated 2016)
Where a name gives a salt, the structure may show the parent alone.

target: T1, human SSAO (Homo sapiens, UniProt Q16853); assay: SSAO enzyme inhibition assay (benzylamine substrate; HRP-coupled hydrogen peroxide detection or 14C-benzaldehyde detection); format: biochemical; conditions: purified recombinantly expressed human SSAO, benzylamine as substrate, r.t.; read-out: SSAO inhibitory activity IC50
T1 construct: made in house
T1 sequence (Q16853 29-763 limits assumed): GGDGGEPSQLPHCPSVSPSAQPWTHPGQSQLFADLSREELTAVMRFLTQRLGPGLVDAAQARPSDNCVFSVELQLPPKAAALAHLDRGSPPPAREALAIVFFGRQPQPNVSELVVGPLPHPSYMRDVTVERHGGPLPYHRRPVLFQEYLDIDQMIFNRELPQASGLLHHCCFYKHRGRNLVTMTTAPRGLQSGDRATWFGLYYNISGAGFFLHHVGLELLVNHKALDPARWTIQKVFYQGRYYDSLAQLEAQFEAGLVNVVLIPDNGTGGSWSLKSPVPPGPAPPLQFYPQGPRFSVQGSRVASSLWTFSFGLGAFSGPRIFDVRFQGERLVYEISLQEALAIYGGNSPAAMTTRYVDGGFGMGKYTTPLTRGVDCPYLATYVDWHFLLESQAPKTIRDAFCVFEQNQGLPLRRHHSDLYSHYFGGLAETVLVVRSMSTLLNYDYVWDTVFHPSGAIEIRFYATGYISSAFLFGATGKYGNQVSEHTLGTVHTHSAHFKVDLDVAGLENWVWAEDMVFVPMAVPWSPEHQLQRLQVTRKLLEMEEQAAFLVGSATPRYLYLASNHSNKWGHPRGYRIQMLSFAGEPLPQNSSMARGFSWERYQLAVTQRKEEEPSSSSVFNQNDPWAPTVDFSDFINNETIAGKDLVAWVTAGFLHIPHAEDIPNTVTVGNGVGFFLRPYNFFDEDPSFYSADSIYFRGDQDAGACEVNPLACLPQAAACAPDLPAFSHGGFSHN
Procedure, shortened: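 Purified recombinant human SSAO, pre-incubated ~15 min at r.t. with compound, then benzylamine added; final DMSO ≦2%. HRP-coupled Amplex format in 50 mM sodium phosphate pH 7.4: enzyme 1 μg/ml, benzylamine 100 μM (≈Km), fluorescence over 1-2 h; 14C format: enzyme 10 μg/ml, benzylamine 40 μM, 1 h. IC50 from four-parameter fit.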

CN(C)C(=O)N1CCC(c2nn(-c3ccc(Cl)cc3)c3cnccc23)CC1 [Compound 91, 4-[1-(4-Chlorophenyl)-1H-pyrazolo[3,4-c]pyridin-3-yl]-N,N-dimethylpiperidine-1-carboxamide] and NCCC(=O)N1CCC(c2nn(-c3ccc(Cl)cc3)c3cnccc23)CC1 [Compound 93, 3-Amino-1-{4-[1-(4-chlorophenyl)-1H-pyrazolo[3,4-c]pyridin-3-yl]piperidin-1-yl}propan-1-one dihydrochloride] fall in the same range of IC50: 100 to 500 nM for the first, 100 to 500 nM for the second.

OCc1cn(-c2ccc(Cl)cc2)c2cnccc12 [Compound 23, [1-(4-Chlorophenyl)-1H-pyrrolo[2,3-c]pyridin-3-yl]methanol] and OCCNCc1cn(-c2ccc(Cl)cc2)c2cnccc12 [Compound 31, 2-({[1-(4-Chlorophenyl)-1H-pyrrolo[2,3-c]pyridin-3-yl]methyl}amino)ethan-1-ol] fall in the same range of IC50: 500 to 2500 nM for the first, 500 to 2500 nM for the second.

Compared with NC1CCC(c2cn(-c3ccc(Cl)cc3)c3cnccc23)CC1 (mixture of isomers) [Compound 12, 4-[1-(4-Chlorophenyl)-1H-pyrrolo[2,3-c]pyridin-3-yl]cyclohexan-1-amine hydrochloride], N#CCCN1CCC(c2cn(-c3ccc(Cl)cc3)c3cnccc23)CC1 [Compound 21, 3-{4-[1-(4-Chlorophenyl)-1H-pyrrolo[2,3-c]pyridine-3-yl]piperidin-1-yl}propanenitrile hydrochloride] is higher in IC50: less than 100 nM for the first, 100 to 500 nM for the second.

First: Cc1ccc(-n2nc(N3CCOCC3(C)C)c3ccncc32)cc1 [Compound 65]
Second: Cc1ccc(-n2nc(N3CCCOCC3)c3ccncc32)cc1 [Compound 67, 4-[1-(4-Methylphenyl)-1H-pyrazolo[3,4-c]pyridin-3-yl]-1,4-oxazepane]
The IC50 of the first is higher: 100 to 500 nM for the first, less than 100 nM for the second. The second is the more potent here.

Compared with Oc1cncc2c1c(C1CCOCC1)nn2-c1ccc(Cl)cc1 [Compound 95, 1-(4-Chlorophenyl)-3-(oxan-4-yl)-1H-pyrazolo[3,4-c]pyridin-4-ol], Fc1cc(Cl)ccc1-n1nc(C2CCOCC2)c2ccncc21 [Compound 44, 1-(4-Chloro-2-fluorophenyl)-3-(oxan-4-yl)-1H-pyrazolo[3,4-c]pyridine] is lower in IC50: 100 to 500 nM for the first, less than 100 nM for the second. The second is the more potent here.

CC1COCCN1c1nn(-c2ccc(Cl)cc2)c2cnccc12 (stereo not drawn) [Compound 60, 4-[1-(4-Chlorophenyl)-1H-pyrazolo[3,4-c]pyridin-3-yl]-3-methylmorpholine] and COC(=O)C1COCCN1c1nn(-c2ccc(C)cc2)c2cnccc12 (stereo not drawn) [Compound 66, Methyl 4-[1-(4-methylphenyl)-1H-pyrazolo[3,4-c]pyridin-3-yl]morpholine-3-carboxylate] cannot be ordered by IC50: less than 100 nM for the first, less than 100 nM for the second.

NC1CCN(c2nn(-c3ccc(Cl)cc3)c3cnccc23)CC1 [Compound 71, 1-[1-(4-Chlorophenyl)-1H-pyrazolo[3,4-c]pyridin-3-yl]piperidin-4-amine] and Clc1ccc(-n2nc(N3CCN(Cc4cc[nH]n4)CC3)c3ccncc32)cc1 [Compound 75, 1-[1-(4-Chlorophenyl)-1H-pyrazolo[3,4-c]pyridin-3-yl]-4-(1H-pyrazol-3-ylmethyl)piperazine] fall in the same range of IC50: 100 to 500 nM for the first, 100 to 500 nM for the second.

First: Cc1ccc(-n2nc(C3COCCN3)c3ccncc32)cc1 (stereo not drawn) [Compound 85, 3-[1-(4-Methylphenyl)-1H-pyrazolo[3,4-c]pyridin-3-yl]morpholine]
Second: Clc1ccc(-n2nc(C3CCN(Cc4cc[nH]n4)CC3)c3ccncc32)cc1 [Compound 89, 4-[1-(4-Chlorophenyl)-1H-pyrazolo[3,4-c]pyridin-3-yl]-1-(1H-pyrazol-3-ylmethyl)piperidine]
The IC50 of the first is higher: 500 to 2500 nM for the first, 100 to 500 nM for the second. The second is the more potent here.

First: NCCCC(=O)N1CCC(c2cn(-c3ccc(Cl)cc3)c3cnccc23)CC1 [Compound 105, 2,2,2-Trifluoroacetic acid; 4-amino-1-{4-[1-(4-chlorophenyl)-1H-pyrrolo[2,3-c]pyridin-3-yl]piperidin-1-yl}butan-1-one]
Second: Clc1ccc(-c2cn(C3CCNCC3)c3ccncc23)cc1 [Compound 5, Bis(2,2,2-trifluoroacetic acid); 4-[3-(4-chlorophenyl)-1H-pyrrolo[3,2-c]pyridin-1-yl]piperidine]
The IC50 of the first is lower: less than 100 nM for the first, 100 to 500 nM for the second.
